Experimental data as given in patent publication US20070048231A1, “Pheromone compositions and methods” (priority 2005, published 2007).

Key:
[1] = tested on: sinusitis; assay: Inhalation exposure of the inventor to androstenone released from a polyethylene bag: sinusitis signs and symptoms; type: in vivo; conditions: human (inventor); about 500 mg in polyethylene bag; about five to seven days of exposure, two to eight hours per day
Text: (§1) For example, increased strength was evidenced by an at least 5-10%, and more typically 10-20% increase of weight that was lifted as compared to the same exercise before exposure to the pheromone.
Therefore, it is also contemplated that the compositions and methods presented herein may present a convenient matter to treat and/or alleviate signs and symptoms of airway inflammation. Most preferably, such inflammation may be sinusitis, asthma, and allergic airway inflammation. In yet other contemplated aspects, additional behavioral effects may be advantageously conferred by use of contemplated compositions and methods, especially including feeling of increased energy, sexual desire, and self-confidence.

[2] = tested on: exercise strength and stamina; assay: Inhalation exposure of the inventor to androstenone released from a polyethylene bag: exercise strength and stamina; type: in vivo; conditions: human (inventor), after about five to seven days of exposure
Text: as §1
With respect to the effects afforded by contemplated compositions and devices, it is generally contemplated that the steroid pheromones will exert both a desirable behavioral effect as well as a desirable non-behavioral effect. […] The term “exercise strength” as used herein refers to an ability to lift a particular weight in a given exercise routine (e.g., lifting of 100 pounds on a bench press). Thus, where exercise strength is increased, heavier weights can be lifted. Most typically the increase in exercise strength is between 5 and 40%, and more typically between 10 and 25%. […] The term “exercise stamina” as used herein refers to an ability to lift a particular weight in a given exercise routine for a maximum of repeats Rmax (e.g., lifting of 100 pounds on a bench press ten times). Thus, where exercise stamina is increased, the weight can be lifted more that Rmax times. Most typically the increase in exercise strength is between 5 and 30%, and more typically between 10 and 20%.

## C[C@]12CCC(=O)C[C@@H]1CC[C@@H]1[C@@H]2CC[C@]2(C)C=CC[C@@H]12 [androstenone, 5α-androst-16-en-3-one]
[1]
  signs and symptoms of a previously diagnosed sinusitis: all signs and symptoms of a previously diagnosed sinusitis had disappeared
[2]; 'at least'
  increase of weight that was lifted as compared to the same exercise before exposure (exercise strength): 5-10%
[2]; 'more typically'
  increase of weight that was lifted as compared to the same exercise before exposure (exercise strength): 10-20%
[2]; 'most typically'
  increase in number of repeats per exercise (exercise stamina): 5-20%
